Measured values published in patent publication US10144715B2, “Piperazine derivatives as liver X receptor modulators” (priority 2014, dated 2018).
Like-named read-outs stand apart in the source and are kept apart here.

How the values were obtained:
LXR α LBD protein [1] = molecular target: T1, LXR α LBD protein (Homo sapiens (Human), UniProt Q13133); experiment: Human LXRα coactivator recruitment FRET assay, agonist mode; type: biochemical; conditions: agonist mode
Protocol: Two μL of the DMSO solutions were transferred to the plate and 38 μL of 10 nM LXRα-LBD or LXRβ-LBD (2×) were added immediately to the wells. The plate was shaken for 5 min at rt on an orbital micro shaker (DPC MicroMix® 5), after which 40 μL of 200 nM fluorescein-SRC2-3 peptide and 20 nM Terbium-anti-GST-antibody (Cat# PV3550, Life Technologies, Grand Island, N.Y.) solution (4×) were added to all. The plate was sealed and shaken for 2 min at rt, and incubated at rt for 2 h without agitation. […] The delay and window times were set at 100 and 200 microseconds, respectively. […] The percent control vs. compound concentration data were fit into a four-parameter model, and EC50 values were calculated from the fit as the concentrations corresponding to the inflection points on the concentration-response curves.

LXR α LBD protein [2] = molecular target: T1, LXR α LBD protein; experiment: LXR α radioligand binding assay (SPA, competition with [3H]TO901317); conditions: read-out: LXRα Binding Ki
LXR β LBD protein = LXR β LBD protein (Homo sapiens (Human), UniProt P55055); experiment: biochemical; type: binding
[3] = molecular target: Gal4 DNA binding domain fused to the LBD of LXRα in HEK293 cells (Homo sapiens (Human), UniProt Q13133); experiment: LXR luciferase transcriptional reporter gene assay, agonist mode, LXRα; type: cell-based; conditions: for EC50: read-out: Cell LXRα EC50
[4] = molecular target: Gal4 DNA binding domain fused to the LBD of LXRβ in HEK293 cells (Homo sapiens (Human), UniProt P55055); experiment: cell-based
[5] = Biological Test Example 1, read-out: LXRβ Binding Ki
[6] = Biological Test Example 2, agonist mode

Chain of Gal4 DNA binding domain fused to the LBD of LXRβ in HEK293 cells (P55055 222-460 limits assumed): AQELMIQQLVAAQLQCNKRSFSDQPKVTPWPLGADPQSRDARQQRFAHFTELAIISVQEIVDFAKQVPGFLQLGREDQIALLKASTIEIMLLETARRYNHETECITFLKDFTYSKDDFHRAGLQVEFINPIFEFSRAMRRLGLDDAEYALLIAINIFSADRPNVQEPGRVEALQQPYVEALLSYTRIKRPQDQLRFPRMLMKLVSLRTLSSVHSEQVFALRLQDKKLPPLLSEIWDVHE
Chain of LXR β LBD protein (P55055 222-460 limits assumed): as above
T1 sequence (Q13133 209-447): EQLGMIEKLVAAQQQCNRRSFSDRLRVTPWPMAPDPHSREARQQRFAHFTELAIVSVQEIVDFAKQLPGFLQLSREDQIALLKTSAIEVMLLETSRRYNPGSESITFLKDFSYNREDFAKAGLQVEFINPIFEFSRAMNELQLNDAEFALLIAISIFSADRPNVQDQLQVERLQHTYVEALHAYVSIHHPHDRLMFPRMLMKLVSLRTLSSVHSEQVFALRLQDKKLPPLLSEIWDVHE
Chain of Gal4 DNA binding domain fused to the LBD of LXRα in HEK293 cells (Q13133 209-447): as above

SMILES | FRET LXRα efficacy (LXR α LBD protein [1]) [%] | Ki (LXR α LBD protein [2]) [µM] | Ki (LXR β LBD protein; read-out: LXRβ Binding Ki) [µM] | Cell LXRα efficacy [3] | EC50 [3] [µM] | EC50 [4] [µM] | Cell LXRβ efficacy ([4]; agonist mode) | Cell LXRβ efficacy [4] | EC50 ([3]; agonist mode) [µM] | Ki (LXR β LBD protein; [5]) [µM] | EC50 [3, 6] [µM] | Ki (LXR β LBD protein) [µM] | Cell LXRβ efficacy [4, 6]
Cc1cc(CN2CCN(c3cccc(S(C)(=O)=O)c3)CC2c2ccccc2)cnc1C(F)(F)F (stereo not shown) [46-48, 1-((5-methyl-6-(trifluoromethyl)pyridin-3-yl)methyl)-4-(3-(methylsulfonyl)phenyl)-2-phenylpiperazine] | 47 |  |  |  |  |  |  |  |  |  |  |  | 
CC(C)(C)OC(=O)N1CCN(c2cccc(S(C)(=O)=O)c2)CC1c1ccc(Br)cc1 (stereo not shown) [1-12, tert-butyl 2-(4-bromophenyl)-4-(3-(methylsulfonyl)phenyl)piperazine-1-carboxylate] | 46 |  |  |  |  |  |  |  |  |  |  |  | 
COC(=O)c1ccc(N2CCN(Cc3ccc(C(F)(F)F)nc3)C(c3ccccc3)C2)cc1S(C)(=O)=O (stereo not shown) [46-59, methyl 2-(methylsulfonyl)-4-(3-phenyl-4-((6-(trifluoromethyl)pyridin-3-yl)methyl)piperazin-1-yl)benzoate] | 109 |  |  |  |  |  |  |  |  |  |  |  | 
Cc1nc(C(F)(F)F)ccc1CN1CCN(c2cccc(S(C)(=O)=O)c2)CC1c1ccccc1 (stereo not shown) [46-47, 1-((2-methyl-6-(trifluoromethyl)pyridin-3-yl)methyl)-4-(3-(methylsulfonyl)phenyl)-2-phenylpiperazine] | 51 |  |  |  |  |  |  |  |  |  |  |  | 
CC(C)[C@@H]1CN(c2ccc(F)c(S(N)(=O)=O)c2)CCN1c1ncc(CO)c(C(F)(F)F)n1 [11-2, (R)-2-fluoro-5-(4-(5-(hydroxymethyl)-4-(trifluoromethyl)pyrimidin-2-yl)-3-isopropylpiperazin-1-yl)benzenesulfonamide] |  | 0.357 | 0.035 | 1336 (57) % | 1.34 | 0.243 | 243 (46) % |  |  |  |  |  | 
Cc1cc(C(F)(F)F)nc(N2CCN(c3ccc(F)c(S(C)(=O)=O)c3)C[C@H]2C(C)C)n1 [7-18, (R)-2-(4-(4-fluoro-3-(methylsulfonyl)phenyl)-2-isopropylpiperazin-1-yl)-4-methyl-6-(trifluoromethyl)pyrimidine] |  | 0.105 | 0.009 | 1110 (61) % | 1.11 | 0.161 |  | 161 (44) % |  |  |  |  | 
CC(C)[C@@H]1CN(c2ccc(F)c(S(C)(=O)=O)c2)CCN1c1nc2ccccc2o1 [7-52, (R)-2-(4-(4-fluoro-3-(methylsulfonyl)phenyl)-2-isopropylpiperazin-1-yl)benzo[d]oxazole] |  | 0.365 | 0.041 | 1018 (76) % | 1.02 | 0.192 |  | 192 (48) % |  |  |  |  | 
CC(C)[C@@H]1CN(c2ccc(F)c(S(C)(=O)=O)c2)CCN1c1ncc(C(F)(F)F)c(C(C)(C)O)n1 [Cpd No 39-1, (R)-2-(2-(4-(4-fluoro-3-(methylsulfonyl)phenyl)-2-isopropylpiperazin-1-yl)-5-(trifluoromethyl)pyrimidin-4-yl)propan-2-ol] |  | 0.053 | 0.002 | 327 (96) % | 0.327 | 0.086 | 86 (62) % |  |  |  |  |  | 
CC(C)[C@H]1CN(c2cccc(S(C)(=O)=O)c2)CCN1C[C@@H]1CC[C@@H](C(F)(F)F)OC1 (single isomer, unassigned) [Cpd No 49-7] |  | 0.333 | 0.045 | 523 (82) % | 0.523 | 0.132 |  | 132 (76) % |  |  |  |  | 
CCOC(=O)c1cnc(N2CCN(c3ccc(F)c(S(C)(=O)=O)c3)C[C@H]2C(C)C)nc1C [7-19, ethyl (R)-2-(4-(4-fluoro-3-(methylsulfonyl)phenyl)-2-isopropylpiperazin-1-yl)-4-methylpyrimidine-5-carboxylate] |  | 0.162 | 0.017 | 909 (40) % |  | 0.176 |  | 176 (32) % | 0.909 |  |  |  | 
CNS(=O)(=O)c1cc(N2CCN(c3ncc(C(=O)OC)c(C(F)(F)F)n3)[C@H](C(C)C)C2)ccc1F [9-6, methyl (R)-2-(4-(4-fluoro-3-(N-methylsulfamoyl)phenyl)-2-isopropylpiperazin-1-yl)-4-(trifluoromethyl)pyrimidine-5-carboxylate] |  | 0.101 | 0.008 | 503 (59) % |  | 0.074 |  | 74 (41) % | 0.503 |  |  |  | 
CC(C)(O)c1cc(CN2CCN(c3cccc(S(C)(=O)=O)c3)C[C@H]2c2ccccc2)ccc1C(F)(F)F [10-14, (R)-2-(5-((4-(3-(methylsulfonyl)phenyl)-2-phenylpiperazin-1-yl)methyl)-2-(trifluoromethyl)phenyl)propan-2-ol] |  | 4.56 | 1.48 |  |  | > 20 |  |  | > 20 |  |  |  | 
CC(C)[C@H]1CN(c2ccc(CO)c(S(C)(=O)=O)c2)CCN1C[C@@H]1CC[C@@H](C(F)(F)F)OC1 [Cpd No 49-3, (4-((S)-3-isopropyl-4-(((3S,6S)-6-(trifluoromethyl)tetrahydro-2H-pyran-3-yl)methyl)piperazin-1-yl)-2-(methylsulfonyl)phenyl)methanol] |  | 0.166 | 0.017 | 178 (75) % | 0.178 | 0.058 |  | 58 (78) % |  |  |  |  | 
NS(=O)(=O)c1cccc(N2CCN(CC3CCN(CC(F)(F)F)CC3)[C@H](c3ccccc3)C2)c1 (single isomer, unassigned) [48-82] |  | 7.4 |  |  |  | > 20 |  |  |  | 2.49 | > 20 |  | 
CC(C)[C@@H]1CN(c2ccc(F)c(S(C)(=O)=O)c2)CCN1c1ncc(CN(C)CCCO)c(C(F)(F)F)n1 [15-9, (R)-3-(((2-(4-(4-fluoro-3-(methylsulfonyl)phenyl)-2-isopropylpiperazin-1-yl)-4-(trifluoromethyl)pyrimidin-5-yl)methyl)(methyl)amino)propan-1-ol] |  | 2.06 |  | 4170 (10) % |  | > 20 |  |  | 4.17 |  |  | 0.146 | 
CC(C)[C@@H]1CN(c2ccc(F)c(S(C)(=O)=O)c2)CCN1c1nccc(C(N)=O)n1 [4-5, (R)-2-(4-(4-fluoro-3-(methylsulfonyl)phenyl)-2-isopropylpiperazin-1-yl)pyrimidine-4-carboxamide] |  | 3.25 | 0.495 | 15117 (37) % | 15.1 | 1.72 |  | 1723 (24) % |  |  |  |  | 
CC(C)[C@H]1CN(c2cccc(S(C)(=O)=O)c2)CCN1CC1CCOCC1 [51-2, (S)-2-isopropyl-4-(3-(methylsulfonyl)phenyl)-1-((tetrahydro-2H-pyran-4-yl)methyl)piperazine] |  | > 3.33 |  |  |  | 1.36 |  |  |  | > 2.5 | > 20 |  | 1362 (7) %
CC(C)[C@@H]1CN(c2ccc(F)c(S(C)(=O)=O)c2)CCN1c1nc2ccc(F)cc2s1 [7-55, (R)-6-fluoro-2-(4-(4-fluoro-3-(methylsulfonyl)phenyl)-2-isopropylpiperazin-1-yl)benzo[d]thiazole] |  | 0.12 | 0.014 | 439 (68) % | 0.439 | 0.106 |  | 106 (55) % |  |  |  |  | 
CC(C)[C@H]1CN(c2ccc(CO)c(S(C)(=O)=O)c2)CCN1Cc1ccc(C(F)(F)F)cc1 [47-2, (S)-(4-(3-isopropyl-4-(4-(trifluoromethyl)benzyl)piperazin-1-yl)-2-(methylsulfonyl)phenyl)methanol] |  | 0.119 | 0.027 | 455 (70) % | 0.455 | 0.159 |  | 159 (65) % |  |  |  |  | 
